We go through 39 molecules from patent US7141560B2, “Alanine 2,6-dialkoxyphenyl ester derivatives as hypnotics” (Akzo Nobel N.V., priority 2001, dated 2006).

This assay relates to mice. The assay can be described thus: Hypnotic activity: loss of righting reflex after intravenous injection in mice. It is filed as in vivo. Particulars: intravenous injection over 10 seconds, dose causing loss of righting reflex for minimum 30 seconds in 50% of treated mice; for ED50: Mus musculus, read-out: HD50 (hypnotic dose50). As for the experimental part: The hypnotic potency of the alanine 2,6-dialkoxyphenyl ester derivatives of the invention was determined upon their intravenous administration in mice. The dose required to cause a loss of righting reflex for a minimum period of 30 seconds in 50% of treated mice after intravenous injection over 10 seconds was determined. This dose is termed the HD50 (hypnotic dose50) and is expressed in μmol.kg^−1. These in vivo experiments were carried out as described in detail by Anderson et al., J. Med. Chem. 1997, 40, 1668–1681.

In the case of `COCCC(C(=O)Oc1c(OC)cccc1OC)N1CCCOCC1` (stereo not drawn) [Example 10a, 2-[4-(Hexahydro-1-oxazepinyl)]-4-methoxybutyric acid, 2,6-dimethoxyphenyl ester], the “HD50 (hypnotic dose50)” value was found to be 15 µmol/kg.

Turning to `COCCC(C(=O)Oc1c(OC)cccc1OC)N1CCOCC1` (stereo not drawn) [Example 10b, 4-Methoxy-2-[4-morpholinyl]butyric acid, 2,6-dimethoxyphenyl ester], the ED50 turned out to be 38 µmol/kg.

Consider `COCCC(C(=O)Oc1c(OC)cccc1OC)N1CC=CCC1` (stereo not drawn) [Example 10c, 4-Methoxy-2-[1-(1,2,3,6-tetrahydropyridinyl)]butyric acid, 2,6-dimethoxyphenyl ester], for which the “HD50 (hypnotic dose50)” value was 22 µmol/kg.

Turning to `COCCC(C(=O)Oc1c(OC)cccc1OC)N1CCC(OC)CC1` (stereo not drawn) [Example 10d, 4-Methoxy-2-[1-(4-methoxypiperidinyl)]butyric acid, 2,6-dimethoxyphenyl ester], the “HD50 (hypnotic dose50)” value worked out at 21 µmol/kg.

Take `COCCC(C(=O)Oc1c(OC)cccc1OC)N1CCCCCC1` (stereo not drawn) [Example 10e, 2-[1-(Hexahydroazepinyl)]-4-methoxybutyric acid, 2,6-dimethoxyphenyl ester]: the “HD50 (hypnotic dose50)” value is 17 µmol/kg.

For `COCCC(C(=O)Oc1c(OC)cccc1OC)N1CCCCC1` (stereo not drawn) [Example 10f, 4-Methoxy-2-[1-piperidinyl]butyric acid, 2,6-dimethoxyphenyl ester], the ED50 is 22 µmol/kg.

Turning to `CCOCCN(CCOCC)C(CCOC)C(=O)Oc1c(OC)cccc1OC` (stereo not drawn) [Example 10g, 2-[N-(Bis(2-ethoxyethyl)amino)]-4-methoxybutyric acid, 2,6-dimethoxyphenyl ester], the “HD50 (hypnotic dose50)” value was 28 µmol/kg.

In the case of `COCCC(C(=O)Oc1c(OC)cccc1OC)N(CCOC)CCOC` (stereo not drawn) [Example 10h, 2-[N-(Bis(2-methoxyethyl)amino)]-4-methoxybutyric acid, 2,6-dimethoxyphenyl ester], the “HD50 (hypnotic dose50)” value came out at 27 µmol/kg.

With `COCCC(C(=O)Oc1c(OC)cc(C)cc1OC)N1CCOCC1` (stereo not drawn) [Example 10i, 4-Methoxy-2-[4-morpholinyl]butyric acid, 2,6-dimethoxy-4-methylphenyl ester], the ED50 came out at 36 µmol/kg.

On to `COCCC(C(=O)Oc1c(OC)cc(C)cc1OC)N1CCCOCC1` (stereo not drawn) [Example 10j, 2-[4-(Hexahydro-1-oxazepinyl)]-4-methoxybutyric acid, 2,6-dimethoxy-4-methylphenyl ester], for which the “HD50 (hypnotic dose50)” value turned out to be 25 µmol/kg.

Turning to `COCCC(C(=O)Oc1c(OC)cc(C)cc1OC)N1CCC(OC)CC1` (stereo not drawn) [Example 10k, 4-Methoxy-2-[1-(4-methoxypiperidinyl)]butyric acid, 2,6-dimethoxy4-methylphenyl ester], the “HD50 (hypnotic dose50)” value is 34 µmol/kg.

In the case of `COCCC(C(=O)Oc1c(OC)cc(C)cc1OC)N(CCOC)CCOC` (stereo not drawn) [Example 10l, 2-[N-(Bis(2-methoxyethyl)amino)]-4-methoxybutyric acid, 2,6-dimethoxy-4-methylphenyl ester], the “HD50 (hypnotic dose50)” value stood at 26 µmol/kg.

`CCOCCN(CCOCC)C(CCOC)C(=O)Oc1c(OC)cc(C)cc1OC` (stereo not drawn) [Example 10m, 2-[N-(Bis(2-ethoxyethyl)amino)]-4-methoxybutyric acid, 2,6-dimethoxy-4-methylphenyl ester]: the “HD50 (hypnotic dose50)” value came to 25 µmol/kg.

With `COCCC(C(=O)Oc1c(OC)cc(C)cc1OC)N1CCCCCC1` (stereo not drawn) [Example 10n, 2-[1-(Hexahydroazepinyl)]-4-methoxybutyric acid, 2,6-dimethoxy-4-methylphenyl ester], the “HD50 (hypnotic dose50)” value worked out at 38 µmol/kg.

In the case of `CCOCCC(C(=O)Oc1c(OC)cccc1OC)N1CCOCC1` (stereo not drawn) [Example 10o, 4-Ethoxy-2-[4-morpholinyl]butyric acid, 2,6-dimethoxyphenyl ester], the ED50 was 36 µmol/kg.

For `CCOCCC(C(=O)Oc1c(OC)cccc1OC)N1CCCOCC1` (stereo not drawn) [Example 10p, 4-Ethoxy-2-[4-(hexahydro-1-oxazepinyl)]butyric acid, 2,6-dimethoxyphenyl ester], the “HD50 (hypnotic dose50)” value worked out at 23 µmol/kg.

`CCOCCC(C(=O)Oc1c(OC)cccc1OC)N1CCCCCC1` (stereo not drawn) [Example 10q, 4-Ethoxy-2-[1-hexahydroazepinyl]butyric acid, 2,6-dimethoxyphenyl ester]: the ED50 came to 25 µmol/kg.

Take `CCOCCC(C(=O)Oc1c(OC)cccc1OC)N(CCOC)CCOC` (stereo not drawn) [Example 10r, 2-[N-(Bis(2-methoxyethyl)amino)]-4-ethoxybutyric acid, 2,6-dimethoxyphenyl ester]: the “HD50 (hypnotic dose50)” value was determined as 27 µmol/kg.

On to `CCOCCC(C(=O)Oc1c(OC)cccc1OC)N(CCOCC)CCOCC` (stereo not drawn) [Example 10s, 2-[N-(Bis(2-ethoxyethyl)amino)]-4-ethoxybutyric acid, 2,6-dimethoxyphenyl ester], for which the “HD50 (hypnotic dose50)” value is 47 µmol/kg.

For `CCOCCC(C(=O)Oc1c(OC)cc(C)cc1OC)N1CCOCC1` (stereo not drawn) [Example 10t, 4-Ethoxy-2-[4-morpholinyl]butyric acid, 2,6-dimethoxy-4-methylphenyl ester], the ED50 amounted to 36 µmol/kg.

With `CCOCCC(C(=O)Oc1c(OC)cc(C)cc1OC)N1CCCCCC1` (stereo not drawn) [Example 10u, 4-Ethoxy-2-[1-hexahydroazepinyl]butyric acid, 2,6-dimethoxy-4-methylphenyl ester], the ED50 stood at 17 µmol/kg.

Turning to `CCOCCC(C(=O)Oc1c(OC)cc(C)cc1OC)N1CCCOCC1` (stereo not drawn) [Example 10w, 4-Ethoxy-2-[4-(hexahydro-1-oxazepinyl)]butyric acid, 2,6-dimethoxy-4-methylphenyl ester], the “HD50 (hypnotic dose50)” value was found to be 26 µmol/kg.

As for `COc1cccc(OC)c1OC(=O)C(CN1CCSCC1)N1CCSCC1` (stereo not drawn) [Example 18a, 2,3-Di-(N-thiomorpholinyl)propanoic acid, 2,6-dimethoxyphenyl ester], the ED50 is 15 µmol/kg.

For `COc1cccc(OC)c1OC(=O)C(CN1CCOC(C)(C)C1)N1CCOC(C)(C)C1` (stereo not drawn) [Example 18b, 2,3-Di-[4-(2,2-dimethylmorpholinyl)]propanoic acid, 2,6-dimethoxyphenyl ester], the “HD50 (hypnotic dose50)” value amounted to 31 µmol/kg.

For the molecule `COc1cccc(OC)c1OC(=O)C(CN1CCOCC1)N1CCOCC1` (stereo not drawn) [Example 18c, 2,3-Di-(4-morpholinyl)propanoic acid, 2,6-dimethoxyphenyl ester], the ED50 is 31 µmol/kg.

Turning to `COc1cccc(OC)c1OC(=O)C(CN1CCOCC1)N1CCSCC1` (stereo not drawn) [Example 19a, 3-(4-Morpholinyl)-2-(N-thiomorpholinyl)propanoic acid, 2,6-dimethoxyphenyl ester], the ED50 is 17 µmol/kg.

For the molecule `COc1cccc(OC)c1OC(=O)C(CN1CCOCC1)N1CCc2ccccc2C1` (stereo not drawn) [Example 19b, 3-(4-Morpholinyl)-2-(1,2,3,4-tetrahydroisoquinoline)propanoic acid, 2,6-dimethoxyphenyl ester], the “HD50 (hypnotic dose50)” value worked out at 29 µmol/kg.

`COc1cccc(OC)c1OC(=O)C(CN1CCOCC1)N1CCSC(C)(C)C1` (stereo not drawn) [Example 19c, 2-[N-(2,2-Dimethylthiomorpholinyl)]-3-(4-morpholinyl)propanoic acid, 2,6-dimethoxyphenyl ester]: the “HD50 (hypnotic dose50)” value was 28 µmol/kg.

Turning to `COc1cccc(OC)c1OC(=O)C(CN1CCOCC1)N1CCO[C@H](C)C1` (stereo partly drawn) [Example 19d, 2-[(R)-4-(2-Methylmorpholinyl)]-3-(4-morpholinyl)propanoic acid, 2,6-dimethoxyphenyl ester], the “HD50 (hypnotic dose50)” value amounted to 27 µmol/kg.

For `CC[C@@H]1CN(C(CN2CCOCC2)C(=O)Oc2c(OC)cccc2OC)CCO1` (stereo partly drawn) [Example 19e, 2-[(R)-4-(2-Ethylmorpholinyl)]-3-(4-morpholinyl)propanoic acid, 2,6-dimethoxyphenyl ester], the “HD50 (hypnotic dose50)” value was determined as 27 µmol/kg.

With `CCC1(C)CN(C(CN2CCOCC2)C(=O)Oc2c(OC)cccc2OC)CCO1` (stereo not drawn) [Example 19f, 2-[4-(2-Ethyl-2-methylmorpholinyl)]-3-(4-morpholinyl)propanoic acid, 2,6-dimethoxyphenyl ester], the “HD50 (hypnotic dose50)” value is 21 µmol/kg.

Regarding `COc1cccc(OC)c1OC(=O)C(CN1CCOCC1)N1CCCCC1` (stereo not drawn) [Example 19g, 3-(4-Morpholinyl)-2-(1-piperidinyl)propanoic acid, 2,6-dimethoxyphenyl ester], the ED50 came to 15 µmol/kg.

For the molecule `COc1cccc(OC)c1OC(=O)C(CN1CCOCC1)N1CCOC[C@H]1C(C)C` (stereo partly drawn) [Example 19h], the “HD50 (hypnotic dose50)” value was 21 µmol/kg.

For the molecule `COc1cccc(OC)c1OC(=O)C(CN1CCSCC1)N1CCOCC1` (stereo not drawn) [Example 19i, 2-(4-Morpholinyl)-3-(N-thiomorpholinyl)propanoic acid, 2,6-dimethoxyphenyl ester], the ED50 turned out to be 19 µmol/kg.

Consider `COc1cccc(OC)c1OC(=O)C(CN1CCc2ccccc2C1)N1CCOCC1` (stereo not drawn) [Example 19j, 2-(4-Morpholinyl)-3-(1,2,3,4-tetrahydroisoquinoline)propanoic acid, 2,6-dimethoxyphenyl ester], for which the “HD50 (hypnotic dose50)” value is 21 µmol/kg.

On to `COc1cccc(OC)c1OC(=O)C(CN1CC=CCC1)N1CCSCC1` (stereo not drawn) [Example 19k, 3-(1,2,3,6-Tetrahydropyridinyl)-2-(N-thiomorpholinyl)propanoic acid, 2,6-dimethoxyphenyl ester], for which the “HD50 (hypnotic dose50)” value came out at 15 µmol/kg.

`CCOc1cccc(OCC)c1OC(=O)C(CN1CCOCC1)N1CCOCC1` (stereo not drawn) [Example 20b, Propanoic acid, 2,3-di(4-morpholinyl), 2,6-diethoxyphenyl ester]: the “HD50 (hypnotic dose50)” value amounted to 24 µmol/kg.

Turning to `COc1cccc(OC)c1OC(=O)C(CCN1CCOCC1)N1CCOCC1` (stereo not drawn) [Example 21a, 2,4-Di-(4-morpholinyl)butanoic acid, 2,6-dimethoxyphenyl ester], the ED50 was found to be 50 µmol/kg.

As to `COc1cccc(OC)c1OC(=O)C(CCN1CCOC(C)(C)C1)N1CCOC(C)(C)C1` (stereo not drawn) [Example 21b], the “HD50 (hypnotic dose50)” value was found to be 25 µmol/kg.
